Assay results reported in PMC8170916, “Sublingual AKBA Exerts Antidepressant Effects in the Aβ-Treated Mouse Model” (Biomolecules, 2021).

Assays:
[1] = test system: depressive-like behavior induced by Aβ; settings: through the increased levels of NA; no reference given; cited from earlier work
Aβ-treated rats = test system: Aβ-treated rats; set-up: method as in PMID 28499898; settings: acute treatment; cited from earlier work
NF-kB p65 = experiment: Western blotting quantification of NF-kB p65 in PFC and HIPP; assay type: in vivo; settings: mice 7 days after icv Aβ 4 µM, sublingual AKBA 5 mg/kg 30 min earlier
Description: (§1) All behavioral experiments were conducted at 5 or 30 min after sublingual administrations of AKBA or vehicle in either SHAM or Aβ-treated mice. Based upon behavioral outcomes observed, neurochemical and biochemical quantifications were performed 30 min after AKBA or vehicle administration in either SHAM or Aβ-treated mice.
(§2) Anesthetized animals were sacrificed by cervical dislocation. Brains were immediately removed and kept on ice for dissection of PFC and HIPP, according to the atlas of Paxinos and Franklin. Tissues were frozen and stored at −80 °C until analyses were carried out. Samples (PFC and HIPP) were homogenized (1:10 w/v) at 4 °C using a PBS buffer containing a 1:100 protease and phosphatase inhibitor cocktail (HALT inhibitors, Thermo Fisher Scientific, Cleveland, OH, USA) for biochemical analyses or perchloric acid 0.1 M for neurochemical analyses. Homogenates were centrifuged at 13,000× g at 4 °C for 20 min, and supernatants were used for further determinations.
(§3) The total amount of proteins was measured in homogenates by using Pierce BCA Assay (Thermo Fisher Scientific, Cleveland, OH, USA). Forty µg of the total lysate protein were separated by SDS-PAGE precast gels (Bio-Rad Laboratories Inc., Segrate (MI), Italy), transferred onto nitrocellulose membranes (Bio-Rad Laboratories Inc, Segrate (MI), Italy) and then blocked for 1 h in blocking buffer (SigmaAldrich, Milan, Italy). Rabbit polyclonal antibody against GFAP (Dako Products, USA; 1:2000), rabbit monoclonal antibody against CD11b (Abcam, Cambridge, MA, USA; ab133357, 1:1000) and mouse monoclonal antibody against NF-kB p65 (Santa Cruz Biotechnology, Dallas, Texas, USA; 1:2000) were used to incubate the membranes overnight at 4 °C. After HRP-conjugated specific antibody incubation, ECL reagent (Bio-Rad Laboratories Inc., Segrate (MI), Italy) was added to the immune complex and chemiluminescence was detected by ChemiDoc MP system (Bio-Rad Laboratories Inc., Segrate (MI), Italy). Optical densities of the bands were measured using ImageJ software (http://rsb.info.nih.gov/ij/ accessed on 15 March 2021) and normalized against bands relative to β-actin (1:5000, Abcam, Cambridge, UK).

kynurenine (KYN) = experiment: Kynurenine quantification in PFC and HIPP by HPLC with electrochemical detection; assay type: in vivo; settings: mice 7 days after icv Aβ 4 µM, sublingual AKBA 5 mg/kg 30 min earlier
Description: as §1, §2
(§4) 5-HT, noradrenaline (NA), and KYN levels were measured in the PFC and HIPP of mice by HPLC coupled with an electrochemical detector (Ultimate ECD, Thermo Scientific Dionex, Milan, Italy) as already reported. Separation was performed by a LC18 reverse phase column (Kinetex, 150 mm × 3.0 mm, ODS 5 μm; Phenomenex, Castel Maggiore-Bologna, Italy). The detection was accomplished by a thin layer amperometric cell (Thermo Scientific Dionex, Milan, Italy) with a 5 mm diameter glassy carbon electrode at a working potential of 400 mV (5-HT and NA) or 0.750 mV (KYN) vs. Pd. The mobile phase consisted of an aqueous buffer containing 75 mM NaH2PO4, 1.7 mM octane sulfonic acid, 0.3 mM EDTA, and acetonitrile 10%, buffered at pH 3.0. The flow rate was kept at 0.7 mL·min-1 by an isocratic pump (Shimadzu LC-10 AD, Kyoto, Japan). Data acquisition and integration were performed by using Chromeleon software (version 6.80, Thermo Scientific Dionex, Milan, Italy). GLU concentrations were determined by HPLC coupled with fluorescence detection (emission length 460 nm; excitation length 340 nm), as previously published. Analyses were carried out using an LC18 reverse phase column (Kinetex, 150 mm × 3.0 mm, ODS 5 μm; Phenomenex, Castel Maggiore, Bologna, Italy) and detection was accomplished by pre-column derivatization with ophthalaldehyde/mercaptopropionic acid. The mobile phase consisted of a 50 mM sodium acetate buffer, at pH 6.95, with gradient methanol increasing linearly from 2 to 30% (v/v) over a 40 min run. […] Results were analyzed by Borwin software (version 1.50; Jasco, Cremella, Italy) and the amino acid concentration was expressed as µM. All data were normalized for total area weight and were expressed as concentration/mg of tissue.

glutamate (GLU) = experiment: Glutamate quantification in PFC and HIPP by HPLC with fluorescence detection; assay type: in vivo; settings: mice 7 days after icv Aβ 4 µM, sublingual AKBA 5 mg/kg 30 min earlier
Description: as §1, §2
(§5) 5-HT, noradrenaline (NA), and KYN levels were measured in the PFC and HIPP of mice by HPLC coupled with an electrochemical detector (Ultimate ECD, Thermo Scientific Dionex, Milan, Italy) as already reported. Separation was performed by a LC18 reverse phase column (Kinetex, 150 mm × 3.0 mm, ODS 5 μm; Phenomenex, Castel Maggiore-Bologna, Italy). The detection was accomplished by a thin layer amperometric cell (Thermo Scientific Dionex, Milan, Italy) with a 5 mm diameter glassy carbon electrode at a working potential of 400 mV (5-HT and NA) or 0.750 mV (KYN) vs. Pd. The mobile phase consisted of an aqueous buffer containing 75 mM NaH2PO4, 1.7 mM octane sulfonic acid, 0.3 mM EDTA, and acetonitrile 10%, buffered at pH 3.0. […] GLU concentrations were determined by HPLC coupled with fluorescence detection (emission length 460 nm; excitation length 340 nm), as previously published. […] Results were analyzed by Borwin software (version 1.50; Jasco, Cremella, Italy) and the amino acid concentration was expressed as µM. All data were normalized for total area weight and were expressed as concentration/mg of tissue.

Aβ-treated mice [2] = experiment: Tail suspension test in Aβ-treated mice; assay type: in vivo; settings: mice 7 days after icv Aβ 4 µM, sublingual AKBA 5 mg/kg 30 min before, Aβ vs SHAM
noradrenaline (NA) = experiment: Noradrenaline quantification in PFC and HIPP by HPLC with electrochemical detection; assay type: in vivo; settings: HIPP, mice 7 days after icv Aβ 4 µM; sublingual AKBA 5 mg/kg 30 min earlier
Description: as §1, §2, §5

Aβ-treated mice [3] = experiment: Splash test in Aβ-treated mice; assay type: in vivo; settings: mice 7 days after icv Aβ 4 µM; sublingual AKBA 5 mg/kg 30 min before testing; Aβ vs SHAM, Aβ+AKBA vs Aβ
CD11b = experiment: Western blotting quantification of CD11b in PFC and HIPP; assay type: in vivo; settings: mice 7 days after icv Aβ 4 µM, sublingual AKBA 5 mg/kg 30 min earlier
Description: as §1, §2, §3

5-HT = 5-HT quantification in PFC and HIPP by HPLC with electrochemical detection; assay type: in vivo; settings: mice 7 days after icv Aβ 4 µM, sublingual AKBA 5 mg/kg 30 min earlier
Description: as §1, §2, §4

GFAP = experiment: Western blotting quantification of GFAP in PFC and HIPP; assay type: in vivo; settings: mice 7 days after icv Aβ 4 µM, sublingual AKBA 5 mg/kg 30 min earlier
Description: as §1, §2, §3

## CNCCC(Oc1ccc(C(F)(F)F)cc1)c1ccccc1 (stereo not drawn) [fluoxetine]
[1]
  Depressive-like behavior induced by Aβ: reduced the depressive-like behavior

## CNC1(c2ccccc2Cl)CCCCC1=O (stereo not drawn) [ketamine]
Aβ-treated rats
  Pro-depressive-like effect of Aβ in rats: able to revert

## Aβ: soluble amyloid beta 1-42 peptide (Tocris), injected icv at 4 µM to evoke a depressive-like phenotype [reference compound]
NF-kB p65; HIPP
  NF-kB p65 content in the HIPP (optical density normalized to actin): significantly increased the levels of this transcription factor
NF-kB p65; PFC
  NF-kB p65 levels in the PFC (optical density normalized to actin): significantly increased cortical NF-kB levels
Kynurenine (KYN); HIPP
  KYN levels in the HIPP: increase in KYN levels induced by the peptide
Kynurenine (KYN); PFC
  KYN levels in the PFC: significant increase in cortical KYN levels
Glutamate (GLU); HIPP
  GLU levels in the HIPP: significantly increased hippocampal GLU levels
Glutamate (GLU); PFC
  GLU levels in the PFC: increased GLU levels compared to SHAM mice
Aβ-treated mice [2]
  Immobility time in the tail suspension test: significant increase in the immobility time
Noradrenaline (NA)
  NA levels in the HIPP: significant increase in catecholamine levels
Aβ-treated mice [3]
  Latency to leak in the splash test: significant increase in latency to leak
  Time spent performing self-care in the splash test: reduction in time spent performing self-care
CD11b; HIPP
  CD11b levels in the HIPP (optical density normalized to actin): significant enhanced hippocampal levels
CD11b; PFC
  CD11b content in the PFC (optical density normalized to actin): no differences were found among experimental groups
5-HT; HIPP
  5-HT levels in the HIPP: no differences among experimental groups
5-HT; PFC
  5-HT levels in the PFC: significant decrease in PFC
GFAP; HIPP
  GFAP levels in the HIPP (optical density normalized to actin): significant increase in hippocampal GFAP levels
GFAP; PFC
  GFAP levels in the PFC (optical density normalized to actin): significant increase in GFAP levels
